Earlier results, collected in US20130344087A1, “COMBINATIONS OF ANTI-S1P ANTIBODIES AND SHPINGOLIPID PATHWAY INHIBITORS” (priority 2010, published 2013).

Assays:
ceramide synthase 2 = target: T1, ceramide synthase 2 (Homo sapiens, UniProt Q96G23); conditions: human pulmonary artery endothelial cells
T1 construct: endogenous in cells; host or cells: human pulmonary artery endothelial cells
T1 sequence (Q96G23 1-380): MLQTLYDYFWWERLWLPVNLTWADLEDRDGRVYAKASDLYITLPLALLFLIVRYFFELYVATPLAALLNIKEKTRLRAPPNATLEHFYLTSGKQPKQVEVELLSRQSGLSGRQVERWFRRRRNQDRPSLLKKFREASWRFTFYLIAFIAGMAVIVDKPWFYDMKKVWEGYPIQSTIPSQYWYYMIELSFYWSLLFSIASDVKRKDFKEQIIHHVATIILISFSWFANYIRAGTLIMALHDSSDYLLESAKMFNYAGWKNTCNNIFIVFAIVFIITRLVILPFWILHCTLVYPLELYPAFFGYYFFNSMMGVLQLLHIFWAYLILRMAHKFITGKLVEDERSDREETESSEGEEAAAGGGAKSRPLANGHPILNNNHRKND

SPHK 2 = target: T2, SPHK 2 (Homo sapiens, UniProt Q9NRA0)
T2 sequence (Q9NRA0 1-654): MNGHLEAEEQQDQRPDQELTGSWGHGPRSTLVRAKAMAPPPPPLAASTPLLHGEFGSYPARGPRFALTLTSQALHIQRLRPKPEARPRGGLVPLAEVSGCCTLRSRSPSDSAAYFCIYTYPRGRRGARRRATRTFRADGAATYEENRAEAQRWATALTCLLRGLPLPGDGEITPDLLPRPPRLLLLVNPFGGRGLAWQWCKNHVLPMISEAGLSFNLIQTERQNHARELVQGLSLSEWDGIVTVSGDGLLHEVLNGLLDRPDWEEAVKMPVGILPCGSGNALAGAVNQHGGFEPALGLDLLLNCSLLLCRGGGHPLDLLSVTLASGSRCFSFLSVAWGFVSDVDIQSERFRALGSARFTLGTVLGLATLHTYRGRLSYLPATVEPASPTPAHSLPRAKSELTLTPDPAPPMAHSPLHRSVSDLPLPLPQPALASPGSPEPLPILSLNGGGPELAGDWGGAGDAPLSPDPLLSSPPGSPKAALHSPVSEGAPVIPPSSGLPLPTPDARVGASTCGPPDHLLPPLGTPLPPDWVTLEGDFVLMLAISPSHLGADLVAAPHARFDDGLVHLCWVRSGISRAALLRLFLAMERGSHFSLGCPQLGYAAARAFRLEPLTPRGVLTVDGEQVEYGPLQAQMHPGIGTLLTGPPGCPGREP

[1] = system: human leukemia U937 cells
[2] = system: human leukemia Jurkat cells
[3] = system: leukemic blasts isolated from patients with acute myelogenous leukemia; conditions: blasts from AML patients
[4] = system: normal peripheral blood mononuclear leukocytes
AML xenograft tumors = conditions: in vivo
ERK2 = ERK2 (Homo sapiens, UniProt P28482); conditions: at concentrations up to 60 μM
PI3-kinase = conditions: at concentrations up to 60 μM
PKCα = PKCα (Homo sapiens, UniProt P17252); conditions: at concentrations up to 60 μM
[5] = system: human cancer cell lines (T-24, MCF-7, NCl/ADR, and MCF-7NP); conditions: range across cell lines, read-out: IC50, inhibition of proliferation

ERK2, sequence (P28482 whole entry, species assumed): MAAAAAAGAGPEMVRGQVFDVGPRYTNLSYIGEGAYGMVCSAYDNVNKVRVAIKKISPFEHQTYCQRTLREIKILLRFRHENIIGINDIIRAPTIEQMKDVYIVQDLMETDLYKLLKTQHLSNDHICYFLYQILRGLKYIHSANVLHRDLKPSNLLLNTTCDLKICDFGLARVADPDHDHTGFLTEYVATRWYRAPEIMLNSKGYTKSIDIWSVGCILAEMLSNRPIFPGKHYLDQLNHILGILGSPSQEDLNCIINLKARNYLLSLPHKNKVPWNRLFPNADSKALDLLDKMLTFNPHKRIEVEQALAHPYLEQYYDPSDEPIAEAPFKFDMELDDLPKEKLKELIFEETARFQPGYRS

SMILES: CCCCCCCCc1ccc(CCC(N)(CO)CO)cc1.Cl [FTY720, 2-amino-2[2-(4-octylphenyl)ethyl]propane-1,3-diol hydrochloride]
- cellular levels of dihydroceramides, ceramides, sphingosine, and S1P (ceramide synthase 2): decreased cellular levels
- inhibition of ceramide synthase 2 (ceramide synthase 2): inhibit ceramide synthase 2
- levels of dihydrosphingosine and dihydrosphingosine 1-phosphate (DHS1P) (ceramide synthase 2; mediated by SPHK1 activity): increased levels

SMILES: CCCCCc1ccc(/C=C/[C@H](O)[C@@H](CO)NC)cc1 [SK1-I, (2R,3S,4E)-N-methyl-5-(4′-pentylphenyl)-2-aminopent-4-ene-1,3-diol]
- inhibition of SPHK 2 (SPHK 2): does not inhibit
- inhibition of PKC (PKC): does not inhibit
- growth and survival of U937 cells [1]: decrease growth and survival
- growth and survival of Jurkat cells [2]: decrease growth and survival
- induction of apoptosis in leukemic blasts [3]: potently induces apoptosis
- effect on normal peripheral blood mononuclear leukocytes [4]: sparing
- growth of AML xenograft tumors (AML xenograft tumors): markedly reduces growth
- S1P levels (S1P and ceramide levels): decreases S1P levels
- levels of proapoptotic precursor ceramide (S1P and ceramide levels): increases levels

SMILES: Oc1ccc(Nc2nc(-c3ccc(Cl)cc3)cs2)cc1 [SPHK I2, 4-[[4-(4-chlorophenyl)-2-thiazolyl]amino]-phenol]
- inhibition of ERK2 (ERK2): no inhibition
- inhibition of PI3-kinase (PI3-kinase): no inhibition
- inhibition of PKCα (PKCα): no inhibition
- IC50 [5]: 900 to 4600 nM

SMILES: CCCCCCCCCCCCCCC[C@H](O)[C@@H](N)CO [safingol, L-threo-dihydrosphingosine]
- cytotoxicity to leukemia cells (leukemia cells): cytotoxic
